Columns and labels:
[1] = system: phosphorylation of IκB (p-IκBα(Ser32)); experiment: Western blot of TNFα-induced phosphorylation of IκB in L929 cells; assay type: cell-based, murine; conditions: FIG. 4
Experimental: (§1) hTNF-α was obtained from Sigma (Cat # T6674). Antibodies for IκB, phospho-IκB, p38, and phospho-p38 were purchased from Cell Signaling.
(§2) Stock L929 cells were grown on tissue culture plastic in complete Dulbecco's Modified Eagle Medium (DMEM) supplemented with 5 weight percent FBS [Fetal Bovine Serum], NEAA [non-essential amino acids], and glutamine. In a first set of experiments, L929 cells were plated using the same medium on 96-well tissue culture plates at high density (i.e., 30,000 cells/well) before use. In a second set of experiments, the testing compounds were pre-incubated with cells for 1 hour. hTNF-α (10 ng/ml) was added to cells for 30 minutes. Cell lysates were then collected for routine Western Blot.
(§3) Inhibition of TNFα signaling pathways: Upon binding to TNFRs, TNFα induces inflammation through the activation of NFκB and p38 signaling pathways. We determined IκB and p38 effects. IκB is the inhibitor for NFκB. TNFα leads to the phosphorylation and disassociation of IκB from NFκB, a signaling event required for NFκB to become activated and translocate into the nucleus to mediate gene transcription.

[2] = system: TNFα mediated NFκB activity (A549Luc cells); experiment: TNFα mediated NFκB luciferase reporter assay in A549Luc cells; assay type: cell-based, human; conditions: for inhibition of TNFα mediated luciferase activity: 1 hr pre-treatment, 20 ng/ml TNFα 4 hours, FIG. 7; for activity to reduce luciferase activity, F002 and MH0724 compared: concentrations up to 75 μM
Experimental: To study TNFα mediated-NFκB activity, a luciferase reporter system was established. The stable cell line A549Luc was derived from human A549 cells with chromosomal integration of a luciferase reporter construct regulated by 6 copies of the NFκB response element. This clonal cell line was obtained by co-transfection of pNFκB-TA-luc and pFLAG-TNFR1-neo followed by G418 selection at 800 μg/ml. A549Luc cells were pre-treated with inhibitors at indicated concentrations for 1 hr before incubation with 20 ng/ml TNFα for 4 hours. Increased luciferase activity was recorded after TNFα treatment. Luciferase activity was determined using the Luciferase Assay System from Promega.
In this assay, the luciferase activity of A549Luc cells before and after TNFα treatment (20 ng/ml) was equivalent to 0% and 100%, respectively.

[3] = system: L929 cells; experiment: Inhibition of TNF-α-induced cytolysis in L929 cells (Crystal Violet staining); assay type: cell-based, murine
Experimental: L929 cultured murine fibroblast cells were obtained from American Type Culture collection (Manassas, Va.). TNF-α was obtained from Roche Applied Science (T6674). Actinomycin D (ACTD) and Crystal Violet were obtained from Sigma-Aldrich. Testing compounds were dissolved in DMSO at 25 mM. Compounds F001 and FT002/F002, appearing in FIG. 3 and FIG. 2/FIG. 4, were described previously in application Ser. No. 11/815,134 as FIGS. 1-6 and 1-9, respectively, and are reproduced here for reference. Compound 71023, appearing in FIG. 1, was ([(aminocarbothioyl)amino]{[4-({[[(aminocarbothioyl)amino](ammonio)methyl]amino}methyl)-2,5-dimethylbenzyl]amino}methylidene)ammonium dichloride, available from Maybridge Chemicals, UK. Compound MH_072 (also described herein as the compound of formula (II)) was also obtained from Maybridge Chemicals, UK. Compound MH_0724 was synthesized by Sapient Discovery, San Diego, Calif., as described in Example 2.
as §2
(§4) Approximately 20 hours after plating the L929 cells on 96-well plates, they were re-fed onto fresh medium containing the test compounds (from 0 to 100 μM, final concentration).
For the TNF-α challenges, approximately 30 minutes later, medium containing 4 unit/mL rh-TNF-α and actinomycin D (10 μg/mL) was added. The final concentrations of rh-TNF-α in the assays were […], which is the ED50 concentrations confirmed to induce 50% cell death. The final concentrations of actinomycin D in the assays were 2.5 μg/mL. The plates were incubated for an additional 16-20 hours at 37° C., 5 vol % CO2 in air.
For Crystal Violet staining, the culture medium was discarded and replaced with 0.2% by weight (in 2% by volume ethanol in water), 100 μL/well. After 15 minutes incubation at room temperature, the plates were washed 6 times with deionized water and dried at 37° C. for 40 minutes. Sodium dodecylsylfate (SDS), (1 wt % in water; 100 μL) was added to each well and mixed gently for 1 hour at room temperature. The plates were read at A570 nm

[4] = system: phosphorylation of p38 (p-p38); experiment: Western blot of TNFα-induced phosphorylation of p38 in L929 cells; assay type: cell-based, murine; conditions: 50 μM; 1 hour pre-incubation, hTNF-α 10 ng/ml 30 minutes; FIG. 4
Experimental: as §1, §2, §3

[5] = biological target: T1, TNFR1 ectodomain (TNFR1 ECD) (Homo sapiens, UniProt P19438); experiment: Isothermal titration calorimetry (ITC) binding to TNFR1 ectodomain; conditions: 25° C., pH 8.0, 5% DMSO, estimated, read-out: affinity between compound and TNFR1 ECD
T1 construct: The calorimetric cell containing purified TNFR1 ectodomain at a concentration of 0.1 mM; His; made in house
T1 sequence (P19438 30-211 limits assumed): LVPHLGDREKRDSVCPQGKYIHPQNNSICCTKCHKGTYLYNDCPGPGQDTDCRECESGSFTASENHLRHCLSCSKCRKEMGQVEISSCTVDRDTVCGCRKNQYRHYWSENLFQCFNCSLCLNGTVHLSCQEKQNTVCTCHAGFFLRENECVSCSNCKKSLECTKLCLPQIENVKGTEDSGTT
Experimental: Human TNFR1 ectodomain was expressed in bacteria as described Murali, et al., 2005 PNAS 102:10970-75, which is incorporated by reference herein in its entirety. The His-tagged recombinant protein was purified from bacterial cell lysate using Ni-NTA column About 4 mg proteins were obtained from 6 liters of culture. The purified TNFR1 ectodomain was verified for binding activity to hTNF-α in ELISA assay.
Isothermal Titration calorimetry (ITC). The binding thermodynamics of MH724 to TNFR1 was measured by ITC using a high precision VP-ITC titration calorimetric system (Microcal LLC, Northampton, Mass.). The calorimetric cell containing purified TNFR1 ectodomain at a concentration of 0.1 mM in 50 mM sodium phosphate buffer (pH 8.0) containing 300 mM NaCl and 5% DMSO was titrated with MH724 dissolved in the same buffer. The concentration of inhibitor was 2 mM. Injection volumes were 8 μl. All solutions were properly degassed to avoid any formation of bubbles in the calorimeter during stirring. The heat evolved upon each injection of inhibitor was obtained from the integral of the calorimetric signal. The heat associated with the binding of the inhibitor to TNFR1 was obtained by subtracting the heat of dilution from the heat of reaction. The measurements were made at 25° C. Data were analyzed and fitted by using the data analysis software supplied by Microcal (ORIGIN 5.0).

[6] = Solubility under the conditions of the L929 cytolysis assay; assay type: physicochemical; conditions: L929 cytolysis assay medium, plasma or biological fluid; read-out: soluble under these conditions only up to
Experimental: as §4

Question: Which “activity on TNFα signaling, F002 compared with MH724” value ([1]; 10 μM, IκB and p38 phosphorylation) does the source give for CC(=O)Oc1ccc(C(O)(c2ccc(OC(C)=O)cc2)c2ccc(OC(C)=O)cc2)cc1 [Compound F002, reference compound] here?
Answer: slightly more activity

Question: What about the “inhibition of TNFα mediated luciferase activity” value [2] of the same compound?
Answer: dose-dependent manner

Question: And the “activity to reduce luciferase activity, F002 and MH0724 compared” value [2]?
Answer: comparable activity

Question: With COC(CNc1ccc(C(F)(F)F)cc1)COc1ccccc1COC(C)=O (stereo not shown) [MH_0724, Acetic acid 2-[2-methoxy-3-(4-trifluoromethyl-phenylamino)-propoxy]-benzyl ester] as the compound, how does the inhibition at 100 µM ([3]; Mus musculus, L929, 100 μM, read-out: maximal inhibition of TNF-α-induced cytolysis) read?
Answer: ~70%

Question: And the inhibition at 50 µM ([3]; Mus musculus, L929, at 50 μM)?
Answer: ~40%

Question: And the “inhibition of TNF-α-induced cytolysis” value ([3]; at 50 μM)?
Answer: about 40%

Question: And the “inhibition of TNF-α-induced cytolysis in L929 cells” value ([3]; from 0 to 100 μM, FIG. 3)?
Answer: dose-dependent inhibition

Question: What about the “inhibition of TNFα-induced phosphorylation of IκB” value ([1]; 50 μM, 1 hour pre-incubation, hTNF-α 10 ng/ml 30 minutes) of the same compound?
Answer: clearly inhibits

Question: What about the “activity on TNFα signaling, MH724 compared with F002” value ([1]; 50 μM, IκB and p38 phosphorylation) of the same compound?
Answer: better activity

Question: And the “inhibition of TNFα-induced phosphorylation of p38” value [4]?
Answer: clearly inhibits

Question: What about the Kd [5] of the same compound?
Answer: 32 µM

Question: And the “luciferase activity, of the control” value ([2]; 100 μM, before and after TNFα treatment = 0% and 100%)?
Answer: less than 40%

Question: And the “inhibition of TNFα mediated luciferase activity” value [2]?
Answer: dose-dependent manner

Question: And the “activity to reduce luciferase activity, F002 and MH0724 compared” value [2]?
Answer: comparable activity

Question: Which results are given for CC(=O)Nc1ccccc1OCC(O)CNCc1ccc(C(F)(F)F)cc1 (stereo not shown) [MH_072]?
Answer: maximum inhibition of TNF-α-induced cytolysis ([3]; 0 to 50 μM, level limited by solubility): about 30%; inhibition at 50 µM ([3]; Mus musculus, L929, at 50 μM): ~30%; inhibition of TNF-α-induced cytolysis in L929 cells ([3]; from 0 to 50 μM, FIG. 2): dose-dependent inhibition; solubility [6]: ≤ 50 µM

Question: For COc1ccc(C(O)(c2ccc(OC)cc2)c2ccc(OC)cc2)cc1 [Compound F001, reference compound], which “inhibition of TNF-α-induced cytolysis in L929 cells” value ([3]; from 0 to 100 μM, FIG. 3) is on record?
Answer: minimal activity
